Experiment: Odour description on paper blotter
Settings: 1% solution in EtOH on paper blotter, 24 h

SMILES | Odour description
CC/C=C\CC(C/C=C\CC)Oc1ccc(C=O)cc1OCC [Example 41, 3-ethoxy-4-(((3Z,8Z)-undeca-3,8-dien-6-yl)oxy)benzaldehyde] | vanilla, powdery
CCCCC/C=C\CCOc1ccc(C=O)cc1OCC [Example 64, (Z)-3-ethoxy-4-(non-3-en-1-yloxy)benzaldehyde] | vanilla (powdery, spicy, creamy)
COC(=O)c1c(C)cc(OCCC=C(C)CCC=C(C)CCC=C(C)C)c(C)c1O [Example 66, methyl 2-hydroxy-3,6-dimethyl-4-((4,8,12-trimethyltrideca-3,7,11-trien-1-yl)oxy)benzoate] | powdery mossy (evernyl)
CCOc1cc(C=O)ccc1OCC/C=C(\C)c1ccccc1 [Example 48, (E)-3-ethoxy-4-((4-phenylpent-3-en-1-yl)oxy)benzaldehyde] | sweet, powdery, vanilla, ice cream
COC(=O)c1ccccc1OCCC=C(C)CCc1ccccc1 [Example 56, methyl 2-((4-methyl-6-phenylhex-3-en-1-yl)oxy)benzoate] | wintergreen, salicylate, slightly powdery, vanilla
CCOc1cc(C=O)ccc1OCCC=C(C)C1CCCC1 [Example 88, 4-((4-cyclopentylpent-3-en-1-yl)oxy)-3-ethoxybenzaldehyde] | powdery, creamy, vanilla
C=C(C)[C@@H]1CC[C@@H](C)C[C@@H]1Oc1ccc(CCC(C)=O)cc1 [Example 14, 4-(4-(((1S,2S,5R)-5-methyl-2-(prop-1-en-2-yl)cyclohexyl)oxy)phenyl)butan-2-one] | sweet fruity (raspberry)
CCOc1cc(C=O)ccc1OCCC=C(C)CCc1ccc2c(c1)OCO2 [Example 79, 4-((6-(benzo[d][1,3]dioxol-5-yl)-4-methylhex-3-en-1-yl)oxy)-3-ethoxybenzaldehyde] | sweet powdery, creamy, vanilla, vanitrope
C=CCC(Oc1ccc(C=CC)cc1OC)C(C)=CCC (stereo not drawn) [Example 6, 2-methoxy-1-((5-methylocta-1,5-dien-4-yl)oxy)-4-(prop-1-en-1-yl)benzene] | woody (smokey, cedarwood, pyrogravure)
C=CCC(CCC=CCC)Oc1ccc(C=O)cc1OCC (stereo not drawn) [Example 78, 4-(deca-1,7-dien-4-yloxy)-3-ethoxybenzaldehyde] | powdery, vanilla
COc1ccc(C(C)=CCCOc2ccc(CCC(C)=O)cc2)cc1 [Example 53, 4-(4-((4-(4-methoxyphenyl)pent-3-en-1-yl)oxy)phenyl)butan-2-one] | sweet powdery, anisic aldehyde, fruity, raspberry ketone
CC(=O)CCc1ccc(OCCC=C(C)CCC2=C(C)CCCC2(C)C)cc1 [Example 82, 4-(4-((4-methyl-6-(2,6,6-trimethylcyclohex-1-en-1-yl)hex-3-en-1-yl)oxy)phenyl)butan-2-one] | fruity, sweet, powdery, raspberry ketone
C=CCC(CCCCCC)Oc1ccc(C=O)cc1OCC (stereo not drawn) [Example 22, 4-(dec-1-en-4-yloxy)-3-ethoxybenzaldehyde] | dry powdery (cedarwood, vanilla)
CC/C=C/CC(CCC)Oc1ccc(C=O)cc1OCC (stereo not drawn) [Example 19, (E)-3-ethoxy-4-(non-6-en-4-yloxy)benzaldehyde] | vanilla powdery creamy
C=CCC(Oc1cc(C)c(C(=O)OC)c(O)c1C)C(C)=CCC (stereo not drawn) [Example 7, methyl 2-hydroxy-3,6-dimethyl-4-((5-methylocta-1,5-dien-4-yl)oxy)benzoate] | powdery (evernyl)
CC=CCC(CCCCCC)Oc1ccc(C=O)cc1OCC (stereo not drawn) [Example 43, 3-ethoxy-4-(undec-2-en-5-yloxy)benzaldehyde] | powdery, creamy, vanilla
CC(=O)CCc1ccc(OCCC=C(C)CCc2ccc3c(c2)OCO3)cc1 [Example 80, 4-(4-((6-(benzo[d][1,3]dioxol-5-yl)-4-methylhex-3-en-1-yl)oxy)phenyl)butan-2-one] | fruity, raspberry, grenadine, berryflor, fresh, transparent
C=CCC(CCCCCCCCC)Oc1ccc(C=O)cc1OCC (stereo not drawn) [Example 91, 3-ethoxy-4-(tridec-1-en-4-yloxy)benzaldehyde] | powdery, vanilla, aldehydic, fruity, mandarin
